The values below come from article PMC7913237, “Small-Molecule Anti-HIV-1 Agents Based on HIV-1 Capsid Proteins” (Biomolecules, 2021).

Holding throughout (assay type): cell-based
Data set [1] deals with HIV-1 (NL4-3 strain) p24 antigen production. Kind of data set: microbe, parasite or virus in culture. The method, then: (§1) For virus preparation, 293T/17 cells (Invitrogen), which are maintained in Dulbecco’s modified Eagle medium (DMEM) containing 10% FBS, in a T-75 flask were transfected with 10 μg of the pNL4-3 construct by the calcium phosphate method. The supernatant was collected 48 h after transfection, passed through a 0.45 μm filter, and stored at −80 °C as a stock virus. Inhibitory activities of test compounds against X4-HIV-1 (NL4-3 strain)-induced cytopathogenicity in MT-4 cells, which are maintained in RPMI-1640 containing 10% FBS, were assessed by the MTT assay. Various concentrations of test compound solutions were added to HIV-1-infected MT-4 cells at multiplicity of infection (MOI) of 0.001, and placed in wells of a 96-well microplate. The test compounds and the reference compounds such as AZT and AMD3100 were diluted by two-fold and five-fold, respectively. After 5 days’ incubation at 37 °C in a CO2 incubator, the number of viable cells was determined by the MTT assay. Cytotoxicities of the test compounds were determined based on reduction of the viability of MT-4 cells by the MTT assay. The p24 antigen content in the culture supernatant was measured using HIV-1 p24 antigen enzyme-linked immunosorbent assay (ELISA) kit according to manufacturer’s instructions (Zeptometrix, Buffalo, NY, USA). A reverse transcriptase inhibitor, AZT, a CXCR4 antagonist, AMD3100 (Sigma Aldrich, St. Louis, MO, USA) were employed as positive control compounds with anti-HIV activity.
These compounds were also evaluated by a different method, using an enzyme-linked immune sorbent assay (ELISA) based on their inhibitory effect against the viral p24 antigen expression in NL4-3 strain-infected MT-4 cells.

In data set [2] the test system is X4-HIV-1 (NL4-3 strain). Kind of data set: Anti-HIV activity: protection against HIV-1 (NL4-3 strain)-induced cytopathogenicity in MT-4 cells, MTT assay. The note with it: for EC50: 50% protection from HIV-1 (NL4-3 strain)-induced cytopathogenicity in MT-4 cells, 5 days, mean or mean ± SD; for inhibition at 25 µM: Human immunodeficiency virus 1, NL43, MT4, HIV-1 (NL4-3)-induced cytopathogenicity in MT-4 cells, printed in EC50 column; for anti-HIV activity (in words): summary of MTT assay results. The method, then: as §1
(§2) The anti-HIV activity of the synthesized compounds was assessed based on protection against HIV-1 (NL4-3 strain)-induced cytopathogenicity in MT-4 cells by an MTT assay. The cytotoxicity of these compounds was determined based on reduction of the viability of MT-4 cells determined by an MTT assay.
On the technique in general: Damage to the host cells serves as the signal in cytopathic effect assays.

The nature of data set [3]: Cytotoxicity: reduction of the viability of MT-4 cells, MTT assay. The following applies: human, MT-4 cells, 50% reduction of the viability of MT-4 cells. On the procedure: as §1, §2
Data set [4] concerns MT-4 cells. Described as above. The following applies: for CC50: 50% reduction of the viability of MT-4 cells; for cytotoxicity (in words): MT-4 cells MTT assay; for concentration below which no cytotoxicity was exhibited: MT-4 cells. The method, then:
as §1, §2

[5] abbreviates: Human immunodeficiency virus 1, NL43, MT4, read-out: p24 ELISA EC50, 50% inhibition of viral p24 antigen production in NL4-3 strain-infected MT-4 cells.
The mark [6] stands for this setting: Human immunodeficiency virus 1, NL43, MT4, 120 h.

The EC50 is the concentration at which the effect is half-maximal. The term CC50 denotes the concentration giving 50% cytotoxicity. As a reminder, the inhibition is the change of the read-out against control, counted positive when it falls. A high value points to strong suppression.

Like-named read-outs stand apart in the source and are kept apart here.

In the case of `c1cc(CN2CCCNCCNCCCNCC2)ccc1CN1CCCNCCNCCCNCC1` [AMD3100, reference compound], the EC50 in data set [1] (setting [5]) amounted to 0.029 µM; in data set [2] (setting [6]) it was 0.027 ± 0.0077 µM. Further, in data set [3], the CC50 at 5 days is > 50 µM.

Regarding `Cc1cn([C@H]2C[C@H](N=[N+]=[N-])[C@@H](CO)O2)c(=O)[nH]c1=O` [AZT, reference compound], the EC50 in data set [1] (50% inhibition of viral p24 antigen production in NL4-3 strain-infected MT-4 cells, read-out: p24 ELISA EC50) stood at 0.047 µM; in data set [2], 0.024 ± 0.015 µM. For the same compound, half-maximal cytotoxicity in data set [4] (CC50) was put at 79 ± 42 µM.

Consider `CSCC[C@H](C)OC(=O)[C@@H](N)c1ccccc1-c1cccc2ccccc12` [Compound 22], for which, in data set [2], the inhibition at 25 µM stood at 31 ± 8.5% and the “anti-HIV activity (in words)” value is given as “weak anti-HIV activity”. Besides, the “cytotoxicity (in words)” value in data set [4] is “relatively weak cytotoxicity”. The compound further yielded a CC50 at 5 days in data set [3] of 33 ± 1.5 µM.

Turning to `CSCC[C@H](C)OC(=O)[C@@H](N)c1ccccc1-c1ccc2ccccc2c1` [Compound 24], in data set [2], the inhibition at 25 µM came to 40 ± 4.6% and the “anti-HIV activity (in words)” value is listed as “weak anti-HIV activity”. The “cytotoxicity (in words)” value in data set [4] is “relatively weak cytotoxicity”. For the same compound, the CC50 at 5 days in data set [3] came out at 30 ± 2 µM.

With `CSCC[C@H](C)OC(=O)[C@@H](N)c1ccccc1-c1coc2ccccc12` [Compound 27], in data set [2], 25 µM produced 11% inhibition and the “anti-HIV activity (in words)” value is recorded as “weak anti-HIV activity”. For the same compound, the “cytotoxicity (in words)” value in data set [4] was “relatively weak cytotoxicity”. The same compound registered a CC50 at 5 days in data set [3] of 34 µM.

For `CSCC[C@H](C)OC(=O)[C@@H](N)c1ccccc1-c1csc2ccccc12` [Compound 28], in data set [2], the inhibition at 25 µM is 31% and the “anti-HIV activity (in words)” value was “weak anti-HIV activity”. Moreover, the “cytotoxicity (in words)” value in data set [4] is “relatively weak cytotoxicity”. The compound also returned a CC50 at 5 days in data set [3] of 45 µM.

`COCC[C@H](C)OC(=O)[C@@H](N)c1ccccc1-c1c[nH]c2ccccc12` [Compound 30] returned an EC50 in data set [2] (setting [6]) of 26 ± 2.9 µM. Further, in data set [2], the “anti-HIV activity (in words)” value was “weak anti-HIV activity”. In addition, the “concentration below which no cytotoxicity was exhibited” value in data set [4] is ≥ 50 µM. Further, in data set [3], the CC50 at 5 days was > 50 µM.

For the compound `C[C@@H](CCSC(C)(C)C)OC(=O)[C@@H](N)c1ccccc1-c1c[nH]c2ccccc12` [Compound 34], the EC50 in data set [2] (setting [6]) was determined as 12 µM. In data set [3], this compound gave a CC50 at 5 days of 17 µM.

Compound `CC(C)SCC[C@H](C)OC(=O)[C@@H](N)c1ccccc1-c1c[nH]c2ccccc12` [Compound 35] registered an EC50 in data set [2] (setting [6]) of 10 µM. Moreover, the CC50 at 5 days in data set [3] worked out at 18 µM.

Compound `C[C@@H](CCSc1ccccc1)OC(=O)[C@@H](N)c1ccccc1-c1c[nH]c2ccccc12` [Compound 36] gave an EC50 in data set [2] (setting [6]) of 11 µM. For the same compound, the CC50 at 5 days in data set [3] stood at 17 µM.

As for `C[C@@H](CCS(C)(=O)=O)OC(=O)[C@@H](N)c1ccccc1-c1c[nH]c2ccccc12` [Compound 38], in data set [2], the inhibition at 25 µM worked out at 34% and the “anti-HIV activity (in words)” value was “weak anti-HIV activity”. Besides, the “concentration below which no cytotoxicity was exhibited” value in data set [4] is ≥ 50 µM. Further, in data set [3], the CC50 at 5 days is > 50 µM.

With `CSCC[C@H](C)OC(=O)[C@@H](N)c1ccccc1-c1c[nH]c2ccccc12` [MKN-1 (1)], the EC50 in data set [1] (read-out: p24 ELISA EC50, 50% inhibition of viral p24 antigen production in NL4-3 strain-infected MT-4 cells) is 8.5 µM. Moreover, in data set [2], the EC50 came to 4.5 ± 2.3 µM and the “anti-HIV activity (in words)” value was “high anti-HIV activity”. Besides, the CC50 in data set [4] came out at 26 ± 8.8 µM.

Take `CSCC[C@H](C)OC(=O)[C@@H](N)c1ccccc1-c1c[nH]c2ccccc12` [MKN-1A (1A)]: the EC50 in data set [1] (setting [5]) worked out at 14 µM; in data set [2] (setting [6]), 8 µM. The “anti-HIV activity (in words)” value in data set [2] is on record as “significant anti-HIV activity”. Also, in data set [3], the CC50 at 5 days turned out to be 38 µM.

Turning to `CSCC[C@@H](C)OC(=O)[C@@H](N)c1ccccc1-c1c[nH]c2ccccc12` [MKN-1B (1B)], the EC50 in data set [1] (setting [5]) was determined as 22 µM; in data set [2] (setting [6]), 24 µM. Moreover, the “anti-HIV activity (in words)” value in data set [2] is on record as “moderate anti-HIV activity”. This compound also came in with a CC50 at 5 days in data set [3] of 37 µM.
